Activity calls are given as the source filed them.
What was measured:
[1] = molecular target: T1, Neuropeptide Y receptor type 2 (Homo sapiens, UniProt P49146); assay: IC50 for human NPY-Y2 blockade – cell-based, counter-screen for NPY-Y1 antagonist project, dose response (AID 1278); format: functional
T1 sequence (P49146 whole entry): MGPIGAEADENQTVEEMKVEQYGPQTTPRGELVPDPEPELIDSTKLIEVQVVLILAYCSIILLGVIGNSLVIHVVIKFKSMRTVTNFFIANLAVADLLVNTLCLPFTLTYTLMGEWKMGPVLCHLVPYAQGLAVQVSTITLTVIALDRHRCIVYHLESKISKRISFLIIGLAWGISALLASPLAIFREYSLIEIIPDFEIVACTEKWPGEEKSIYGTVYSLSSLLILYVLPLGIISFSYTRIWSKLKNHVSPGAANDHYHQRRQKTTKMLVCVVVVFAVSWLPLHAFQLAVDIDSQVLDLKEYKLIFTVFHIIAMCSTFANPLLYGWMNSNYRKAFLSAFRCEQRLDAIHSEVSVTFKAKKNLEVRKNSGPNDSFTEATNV

[2] = molecular target: T2, Neuropeptide Y receptor type 1 (Homo sapiens, UniProt P25929); assay: IC50 of human NPY-Y1 blockers – cell-based, dose response (AID 1277); format: functional
T2 sequence (P25929 whole entry): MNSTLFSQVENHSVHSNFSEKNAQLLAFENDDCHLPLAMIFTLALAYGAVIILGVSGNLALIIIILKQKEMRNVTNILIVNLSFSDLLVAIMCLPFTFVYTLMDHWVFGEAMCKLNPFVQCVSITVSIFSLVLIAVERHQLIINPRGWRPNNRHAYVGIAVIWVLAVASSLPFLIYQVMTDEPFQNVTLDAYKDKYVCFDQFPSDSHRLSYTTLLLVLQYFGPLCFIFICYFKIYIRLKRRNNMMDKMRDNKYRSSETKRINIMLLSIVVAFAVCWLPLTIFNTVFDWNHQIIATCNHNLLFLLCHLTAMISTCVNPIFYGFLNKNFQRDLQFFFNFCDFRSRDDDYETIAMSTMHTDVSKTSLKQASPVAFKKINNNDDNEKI

[3] = molecular target: ATP-sensitive inward rectifier potassium channel 1 (Homo sapiens, UniProt P48048); assay: Kir1.1 channel inhibitor analog potency – cell-based, thallium flux, analog library, SAR follow-up (AID 435017); format: functional
ATP-sensitive inward rectifier potassium channel 1, sequence (P48048 whole entry, the tested form may be a part): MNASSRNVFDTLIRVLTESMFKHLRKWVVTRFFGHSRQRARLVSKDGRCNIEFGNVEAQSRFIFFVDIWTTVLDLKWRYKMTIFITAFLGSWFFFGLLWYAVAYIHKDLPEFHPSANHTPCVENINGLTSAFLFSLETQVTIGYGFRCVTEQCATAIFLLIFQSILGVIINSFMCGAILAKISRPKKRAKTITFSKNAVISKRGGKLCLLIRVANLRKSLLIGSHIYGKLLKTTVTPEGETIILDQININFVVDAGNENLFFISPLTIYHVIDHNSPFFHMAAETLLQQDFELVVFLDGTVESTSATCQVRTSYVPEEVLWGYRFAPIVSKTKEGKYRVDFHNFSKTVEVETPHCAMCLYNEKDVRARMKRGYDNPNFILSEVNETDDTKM

[4] = CCR5-tropic HIV-1 fusion blockers – cell-based, CCR5-tropic Env, dose response (AID 2279); format: functional
[5] = molecular target: T3, Small ubiquitin-related modifier 1 (Homo sapiens, UniProt P63165); assay: SUMO1 protein-protein binding blockers, potency – biochemical, FRET, dose response (AID 624383); format: functional; conditions: read-out: IC50_Mean
T3 sequence (P63165 whole entry): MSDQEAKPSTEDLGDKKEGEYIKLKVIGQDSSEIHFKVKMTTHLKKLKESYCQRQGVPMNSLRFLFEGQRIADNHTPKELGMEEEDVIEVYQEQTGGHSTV

[6] = molecular target: Serine/threonine-protein phosphatase PP1-alpha catalytic subunit (Homo sapiens, UniProt P62136); assay: inhibition of protein phosphatase 1 activity – biochemical, fluorescence, dose response (AID 2403);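 note: phosphatase turnover of OMFP into fluorescent 3-O-methylfluorescein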
Serine/threonine-protein phosphatase PP1-alpha catalytic subunit, sequence (P62136 whole entry): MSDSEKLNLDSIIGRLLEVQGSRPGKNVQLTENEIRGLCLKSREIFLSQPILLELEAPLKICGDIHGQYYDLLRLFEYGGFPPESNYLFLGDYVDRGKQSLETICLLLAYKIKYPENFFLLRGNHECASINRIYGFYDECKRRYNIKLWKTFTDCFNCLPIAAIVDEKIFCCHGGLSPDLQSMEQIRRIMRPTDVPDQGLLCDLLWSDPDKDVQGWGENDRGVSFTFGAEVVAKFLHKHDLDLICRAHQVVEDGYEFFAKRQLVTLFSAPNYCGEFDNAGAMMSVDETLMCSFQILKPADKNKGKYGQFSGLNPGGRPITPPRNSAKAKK

[7] = molecular target: Serine/threonine-protein phosphatase (Homo sapiens, UniProt Q9BPW0); assay: Counterscreen for inhibitors of PP1: fluorescence-based biochemical high throughput dose response assay to identify inhibitors of Protein Phosphatase 5 (PP5). [Related pubchem assays: 2034 (Summary (PP5 inhibitors)), 1987 (PP5 inhibitors in singlate), 2235 (PP1 inhibitors in singlate)]
Serine/threonine-protein phosphatase, sequence (Q9BPW0 whole entry): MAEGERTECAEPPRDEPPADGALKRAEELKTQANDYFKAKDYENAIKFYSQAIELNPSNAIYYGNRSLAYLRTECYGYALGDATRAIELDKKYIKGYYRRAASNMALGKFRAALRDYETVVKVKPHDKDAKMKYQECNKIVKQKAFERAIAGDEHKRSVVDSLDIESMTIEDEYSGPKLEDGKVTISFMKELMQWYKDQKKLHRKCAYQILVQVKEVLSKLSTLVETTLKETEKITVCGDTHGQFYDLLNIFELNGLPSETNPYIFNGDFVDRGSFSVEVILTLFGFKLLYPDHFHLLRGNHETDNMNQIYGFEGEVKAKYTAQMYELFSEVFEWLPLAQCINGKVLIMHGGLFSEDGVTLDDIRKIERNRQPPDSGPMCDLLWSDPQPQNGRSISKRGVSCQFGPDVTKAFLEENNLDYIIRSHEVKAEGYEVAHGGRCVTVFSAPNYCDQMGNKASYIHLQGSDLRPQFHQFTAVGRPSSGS

[8] = molecular target: Prothrombin (Bos taurus, UniProt P00735); assay: thrombin protease inhibitors – biochemical, fluorescence polarization, uHTS hits, dose response (AID 602369); format: functional
[9] = molecular target: 26S proteasome non-ATPase regulatory subunit 14 (Homo sapiens, UniProt O00487); assay: inhibition of proteasome subunit RPN11 – biochemical, fluorescence polarization, uHTS hits, confirmation (AID 602368); format: functional
26S proteasome non-ATPase regulatory subunit 14, sequence (O00487 whole entry): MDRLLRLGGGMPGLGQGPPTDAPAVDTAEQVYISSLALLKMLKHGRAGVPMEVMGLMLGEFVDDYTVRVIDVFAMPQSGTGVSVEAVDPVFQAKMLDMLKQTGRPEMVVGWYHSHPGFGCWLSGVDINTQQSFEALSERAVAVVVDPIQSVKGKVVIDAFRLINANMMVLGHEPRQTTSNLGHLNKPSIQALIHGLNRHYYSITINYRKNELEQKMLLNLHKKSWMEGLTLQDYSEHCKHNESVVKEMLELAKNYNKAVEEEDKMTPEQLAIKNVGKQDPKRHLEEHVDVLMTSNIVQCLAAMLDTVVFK

[10] = molecular target: T3, Small ubiquitin-related modifier 1; assay: SUMO1 protein interaction blockers, potency – biochemical, fluorescence polarization, uHTS hits, dose response (AID 624382); format: functional; conditions: read-out: IC50_Mean
[11] = molecular target: Genome polyprotein (Hepatitis C virus, UniProt Q2Q167); assay: disruption of hepatitis C core self-association – biochemical, TR-FRET, dose response (AID 2159); set-up: species or system Hepacivirus hominis;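 note: blocks dimerization of HCV core protein measured by TR-FRET between tagged core106 pairs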
Genome polyprotein, sequence (Q2Q167 whole entry): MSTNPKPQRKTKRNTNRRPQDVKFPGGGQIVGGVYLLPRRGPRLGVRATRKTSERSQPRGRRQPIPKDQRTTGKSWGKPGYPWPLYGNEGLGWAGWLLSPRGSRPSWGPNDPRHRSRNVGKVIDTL

[12] = molecular target: 72 kDa type IV collagenase (Homo sapiens, UniProt P08253); assay: Dose Response validation of uHTS RPN11 inhibitor hits using a MMP-2 Fluorescence assay.; format: functional
72 kDa type IV collagenase, sequence (P08253 whole entry): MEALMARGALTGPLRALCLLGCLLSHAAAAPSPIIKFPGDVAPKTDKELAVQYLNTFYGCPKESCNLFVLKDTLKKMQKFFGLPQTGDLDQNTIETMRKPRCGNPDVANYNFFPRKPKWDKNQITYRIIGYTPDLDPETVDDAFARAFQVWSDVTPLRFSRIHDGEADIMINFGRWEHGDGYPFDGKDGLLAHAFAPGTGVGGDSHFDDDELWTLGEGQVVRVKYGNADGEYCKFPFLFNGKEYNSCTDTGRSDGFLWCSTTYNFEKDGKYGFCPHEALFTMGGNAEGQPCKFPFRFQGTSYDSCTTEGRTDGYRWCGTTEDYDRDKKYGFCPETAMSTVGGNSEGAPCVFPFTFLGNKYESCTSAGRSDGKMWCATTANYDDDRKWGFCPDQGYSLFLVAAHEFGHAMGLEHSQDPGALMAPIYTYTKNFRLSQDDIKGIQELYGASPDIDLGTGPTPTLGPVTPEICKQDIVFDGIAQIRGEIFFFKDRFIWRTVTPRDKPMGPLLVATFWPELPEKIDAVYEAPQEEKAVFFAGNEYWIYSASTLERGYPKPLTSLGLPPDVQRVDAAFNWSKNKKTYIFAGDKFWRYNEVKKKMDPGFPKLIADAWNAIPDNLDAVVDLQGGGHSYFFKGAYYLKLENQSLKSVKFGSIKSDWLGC

[13] = cells
[14] = system: Vero; assay: host cell viability loss, Vero E6 – synthesized analogs, cytotoxicity control for West Nile virus antiviral project, SAR follow-up (AID 2244); format: functional; conditions: Chlorocebus sabaeus
[15] = A cytotoxicity screen of small molecule inhibitors of the PhoP region in Salmonella typhi identified in the primary screen. [Related pubchem assays: 1850, 1864, 1985 ]; format: functional

## CNCc1cc(Cl)cc(OC)c1OC(C)C
[1]
  IC50: > 35 µM (not active)
[2]
  IC50: > 35 µM (not active)

## O=[N+]([O-])c1ccc(CN2CCOCCOCCN(Cc3ccc([N+](=O)[O-])cc3)CCOCC2)cc1
[3]
  IC50: 273 nM (active)

## COc1ccc(C(=O)/C=C/c2cccc(OCc3ccccc3)c2)cc1CSCC(=O)O
[4]
  IC50: 18.7 µM (active)

## CCOc1ccc(NC(=O)c2ccc(NC(=O)COC(=O)c3ccc(NC(=O)CC#N)cc3)cc2)cc1
[5]
  IC50: 2.11 µM (active)
[6]
  IC50: 6.8 µM (active)
[7]
  IC50: > 67 µM (not active)
[8]
  IC50: 55.4 µM (active)
[9]
  IC50: 15.9 µM (active)
[10]
  IC50: > 66.6 µM (inactive)
[11]
  IC50: > 49.8 µM (not active)
[12]
  IC50: > 100 µM (inactive)

## CCOc1ccc2nc(NC(=O)C(CCSC)NS(=O)(=O)c3cccs3)sc2c1 (stereo not given)
[13]
  IC50: 2.48 µM (active)

## O=C(Nc1nc(-c2ccc(Cl)cc2)cs1)c1ccc(I)cc1
[14]
  CC50: > 40 µM (active)

## COc1cc(C)c(Cl)cc1S(=O)(=O)n1cnc(C)c1
[15]
  EC50: > 50 µM (active)

Source: ChEMBL document CHEMBL1201862, “PubChem BioAssay data set” (2004)
